Measured values as given in US20050209157A1, “Short bioactive peptides and methods for their use” (priority 2001, published 2005).
Like-named read-outs stand apart in the source and are kept apart here. No end group written: not given here.

Tests used:
[1] = system: yeast (Saccharomyces cerevisiae); assay: Antimicrobial assay I, yeast assay in RPMI 1640; assay type: cell-based; settings: RPMI 1640 media
[2] = system: P. aeruginosa H774; assay type: cell-based, Pseudomonas aeruginosa; settings: P. aeruginosa H744; nalidixic acid + peptide at ¼ MIC; 0.5 or less = synergy
In short: (§1)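 FIC index, computed as 0.25 plus the ratio of combination to single-agent antibiotic MIC, defines synergy when 0.5 or below. Peptide fixed at one quarter MIC while chloramphenicol or nalidixic acid was serially diluted two-fold; antibiotic-alone MICs served as baselines.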

[3] = system: P. aeruginosa; assay type: cell-based, Pseudomonas aeruginosa; settings: P. aeruginosa H744; MIC of nalidixic acid with peptide at ¼ MIC
In short: as §1

[4] = system: P. aeruginosa H374; assay type: cell-based, Pseudomonas aeruginosa; settings: for MIC Cm-comb.: MIC of chloramphenicol with peptide at ¼ MIC; for MIC Nal-comb.: MIC of nalidixic acid with peptide at ¼ MIC; for FIC Index: 0.5 or less = synergy
In short: as §1

[5] = in vitro; settings: human, WI38 normal lung fibroblast cells, LD50 WI38, WI38 normal lung fibroblast line, MTT, 24 hours with peptide
[6] = system: H1299; assay: Anti-cancer assay, MTT, LD50; assay type: cell-based; settings: 24 hours with peptide, lung large cell carcinoma
Description: (§2) Numbers are LD50 values (μg/mL).

[7] = system: SW480; assay: Anti-cancer assay, MTT, LD50; assay type: cell-based; settings: SW480 colon adenocarcinoma line, 24 hours with peptide
Description: as §2

[8] = system: MCF7; assay: Anti-cancer assay, MTT, LD50; assay type: cell-based; settings: MCF7 breast adenocarcinoma line, MTT, 24 hours with peptide
Description: as §2

[9] = system: HeLaS3; assay: Anti-cancer assay, MTT, LD50; assay type: cell-based; settings: 24 hours with peptide, cervical carcinoma
Description: as §2

[10] = system: PC3; assay: Anti-cancer assay, MTT, LD50; assay type: cell-based; settings: 24 hours with peptide, prostate adenocarcinoma
Description: as §2

[11] = system: BMKC; assay: Anti-cancer assay, MTT, LD50; assay type: cell-based; settings: BMKC cloned melanoma line, 24 hours with peptide
Description: as §2

[12] = system: Staphylococcus aureus ATCC 6538; assay: Antimicrobial assay I, MIC by OD measurement; assay type: cell-based; settings: 37° C. for 24 hours, absorbance 620 nm
[13] = system: Pseudomonas aeruginosa ATCC 9027; assay: Antimicrobial assay I, MIC by OD measurement; assay type: cell-based; settings: 37° C. for 24 hours, absorbance 620 nm
[14] = system: WI38; settings: MTT, 24 hours with peptide; normal fibroblast line
[15] = system: laminin; assay: Laminin stimulation, ELISA on fibroblast cell lines; assay type: cell-based
Protocol: Fibroblast cell lines were cultured under standard conditions and assayed for collagen and laminin using an ELISA system manufactured by Panvera (Madison, Wis.). Antibodies for collagen and laminin manufactured by Takara Shuzo Co., Ltd Japan. […] The other three peptides tested neither stimulated nor inhibited production (i.e. no effect was observed).

[16] = system: P. acne ATCC 6919; assay: Antimicrobial assays II, NCCLS broth microdilution MIC; assay type: cell-based, Propionibacterium acnes; settings: mean of three, in µg/mL
[17] = chloramphenicol + peptide at ¼ MIC
[18] = nalidixic acid + peptide at ¼ MIC, FIC=0.25+MIC comb/MIC alone

Row | Substance | yeast (MIC or MFC) [1] | FIC Index [2] | MIC Nal-comb. [3] [µg/mL] | MIC Cm-comb. [4] [µg/mL] | MIC Nal-comb. [4] [µg/mL] | FIC Index [4, 17] | FIC Index [4, 18] | CC50 at 24 h [5] [µg/mL] | H1299 LD50 [6] [µg/mL] | LD50 SW480 [7] | LD50 MCF7 [8] [µg/mL] | HeLaS3 LD50 [9] | PC3 LD50 [10] [µg/mL] | LD50 BMKC [11] | staph6538 (MIC) [12] | paerug9027 (MIC) [13] | WI38 LD50 [14] [µg/mL] | Laminin stimulation [15] [%] | P. acne MIC [16]
1 | MPKWKVFKKIEKVGRNIRNGIVKAGPAIAVLGEAKALG-NH2 [P12, reference compound] | > (> indicates greater than 200 μg/mL) | 0.75 | 312 | 16 | 2500 | 1.25 | 0.75 | 950 | 720 | > (> indicates greater than 1000) | 540 | > (> indicates greater than 1000) | 630 | > (> indicates greater than 1000) | > (> indicates greater than 200 μg/mL) | 100 µg/mL | 950 | 0 | 
2 | FALKALKKLKKALKKAL-NH2 [P153] | 100 µg/mL | 1.25 | 624 | 8 | 5000 | 0.75 | 1.25 | 130 | 50 | 61 µg/mL | 64 | 140 µg/mL | 97 | 165 µg/mL | 5 µg/mL | 25 µg/mL | 130 | 32 | 4
3 | FAVGLRAIKRALKKLRRGVRKVAKDL-NH2 [P157, reference compound] | > (> indicates greater than 200 μg/mL) | 1.25 | 624 | 8 | 2500 | 0.75 | 0.75 | 500 | 315 | 530 µg/mL | 240 | > (> indicates greater than 1000) | 375 | 600 µg/mL | 200 µg/mL | > (> indicates greater than 200 μg/mL) | 500 |  | 4
